# Assay results published in patent US8852601B2, “Method of stimulating growth and resistance to diseases of aquatic organisms” (Centro de Ingenieria Genetica y Biotecnologia, priority 2002, dated 2014).
# Marks after values point to notes of the source that are not given here. Non-standard residues stand in square brackets, D forms with d. No end group written: not given here.
# What was measured:
# tilapia [1] = test: Weigh of tilapia treated with GHRP-6 by immersion; type: in vivo, Oreochromis aureus; conditions: for Mean weigh ± DS: once a week for 45 days
# Method: (§1) Tilapias (Oreochromis aureus) of 1.5 g of mean weigh were treated by immersion with two different doses of GHRP-6 (10 μg/100 ml and 100 μg/100 ml). A similar control group was treated with physiological solution.
# (§2) In the experiment was measured the weigh (Table 1), biochemical blood parameters (Table 2), number of parasite in gill (Trichodinicos (Table 3) y Helmintos mongeneos (Table 4)) and humidity and protein concentration in muscle
# (§3) Fifteen animals per group (3×) with mean weigh of 1 g were selected for the assay. In 9 tank of 40 liters were developed the experiment. One a week application was done for 45 days.
# (§4) • Group I 10 μg/100 ml (Treatment 1) • Group II 100 μg/100 ml (Treatment 2) • Group III Control (Physiological solution)
# protozoo Trichodina sp. = test: Invasion intensity and extension of Trichodina sp. in tilapia treated by immersion; type: in vivo
# Method: as §1, §2, §3, §4
# tilapia IGF mRNA = test: Hepatic IGF mRNA levels in tilapia injected with GHRP-6 (Northern blot); type: in vivo; conditions: 0.1 μg/gbw
# Method: (§5) Fifteen tilapias with average weight 71±28 g were used for the experiment. The GHRP-6 was injected with hexapeptide at 0.1 μg/gbw. The liver and blood samples were drawn before the treatment and 15 min, 30 min, 1 h and 6 h after the peptide injection (three animals per group). The serum and liver sample were collected and stored at −70° C. until used for total RNA isolation and Northern blot analysis. A serum sample was also taken before the treatment in all animals.
# Northern blot analysis was used to measure the relative IGF mRNA levels in tilapia injected with the peptide. Total RNA was purified from liver samples as described by Chomczynski and Sacchi (Chomczynski P, Sacchi N. Single step method of RNA isolation by acid guanidium thiocyanate-phenol-chloroform extraction. Anal Biochem 1987; 162:156-59). Twenty μg of RNA were fractionated on 1% formaldehyde agarose gels and transferred to nylon membranes (Hybond N, Amersham UK) and hybridized with a tilapia IGF-I cDNA probe and subsequently rehybridized with a human gliceraldehyde 3 phosphate dehydrogenase cDNA (GAPDH, kindly given by Dr. Bryan Williams, Cleveland Foundation, OH, USA) to normalize the signals. Hybridization signals were quantified by digital image processing of scanned gels with a Hewlett Packard Scanjet Plus scanner. Images were processed with the Bandleader computer program. […]
# juvenile tilapia [2] = test: Growth promoting activity in juvenile tilapia, intraperitoneal injection; type: in vivo, Oreochromis aureus; conditions: intraperitoneal 0.1 μg/gbw twice a week, three weeks; P<0.05
# Method: Juvenile hybrid tilapia (Oreochromis aureus) supplied by the Aquadique Aquaculture Station (Havana, Cuba) were acclimated in a 500 litters tank with re-circulating freshwater at 25° C. with constant photoperiod (14 hours light and 10 hours darkness) and fed with commercially prepared pellets (CENPALAB, Havana, Cuba). Daily rations equivalent to 5% of body weight were administered twice a day until they were used in the experiments.
# GHRP-6 (BACHEM, Switzerland) was diluted in PBS and injected twice a week during three weeks at 0.1 μg per gram of fish body weight (gbw). The peptide was administered to a group of eight male tilapia with average body weight of 61±14.3 g and seven male tilapia with average body weight of 61.41±29.67 g were injected with PBS as a control group.
# (§6) Body weight in grams was measured weekly. In all the experiments the animals were labeled with microchips (Stoelting Co. Wood Dale, U.S.A.).
# tilapia [3] = test: Humidity and protein concentration in muscle of tilapia treated by immersion; type: in vivo, Oreochromis aureus
# Method: as §1, §2, §3, §4
# Helmintos monogeneos = test: Invasion intensity and extension of Helmintos monogeneos in the gill of tilapia treated by immersion; type: in vivo; conditions: for I: Invasion intensity: in the gill per fish
# Method: as §1, §2, §3, §4
# serum GH = test: Serum GH levels in tilapia injected with GHRP-6 (ELISA); type: in vivo; conditions: 15 min after intraperitoneal injection, 0.1 μg/gbw
# Method: as §5
# Serum GH levels were determined by ELISA using two monoclonal antibodies against tilapia GH (Muñoz et al, in preparation).
# [4] = tested on: shrimp Litopenaeus schmitti larvae; test: Growth promoting activity in shrimp larvae treated by immersion; type: in vivo
# Method: Three different doses of GHRP-6 were applied by immersion to groups or shrimp larvae. The application was made each three days. Four applications were made for each group, including one control group receiving bovine serum albumin (BSA). The treatment was made per 1 hour to a concentration of GHRP-6 per liter of seawater as follow: • Group 1: 0.001 mg/L • Group 2: 0.01 mg/L • Group 3: 0.1 mg/L • Group 4: 1 mg of BSA/L
# juvenile tilapia [5] = test: Growth promoting activity in juvenile tilapia, oral intubation (non encapsulated and encapsulated peptide); type: in vivo, Oreochromis aureus
# Method: as §6
# GHRP-6 peptide was diluted in phosphate buffered saline (PBS) and administered through a plastic tube to the pharyngeal cavity to a group of seven male tilapia with average body weight 87.22±14.1 g. PBS was delivered to the control group (n=7, all male tilapia) with average weight 89.22±7.66 g. The treatment was done twice a week during three weeks at 0.1 μg/gbw. Body weight in grams was measured weekly. (FIG. 3)
# For the encapsulation of peptide the capsules were obtained as previously reported by Knorr et al., 1988; using chitosan and alginic acid encapsulated peptide. The hexapeptide GHRP-6 was administered through a plastic tube to the pharyngeal cavity to seven male tilapia with average body weight 89.09±8.38 g. Polymer beads without peptide were administered to seven male tilapia with average weight 89.86±13.54 g as a control group. The treatment was performed twice a week at 0.14 μg/gbw. (FIG. 4)
# [6] = tested on: larvae shrimp Litopeneaus schmitti; test: Shrimp larvae treated by immersion in production conditions; type: in vivo, Litopenaeus schmitti; conditions: production condition, vs non-treated group
# Description: FIG. 8. Growth rate of larvae shrimp Litopeneaus schmitti in production conditions treated with GHRP-6 by immersion. The experiment was follow by six week. ***t-test p<0.001. Bars indicate standard error
# In production condition the survival rate of the larvae was increased in 20% in the group treated with the GHRP-6 in comparison with the non-treated group. […] On the other hand the uniformity of the animals was higher in the group treated with the hexapeptide and the variation coefficient was lower in weigh and size (FIG. 8).
# [7] = Grupo I, immersion 10 μg/100 mL
# [8] = Grupo II, immersion 100 μg/100 mL
# [9] = comparison II-III (100 μg/100 mL vs saline), significant
# [10] = comparison III-I (saline vs 10 μg/100 mL), significant
# [11] = comparison III-I (saline vs 10 μg/100 mL)
# [12] = 0.1 mg/L immersion, statistically significant
# [13] = 0.1 mg/L, four 1 hour immersions, each three days, vs BSA control
substance,measurement,setting,value
"His-D-Trp-Ala-Trp-D-Phe-Lys-NH2 (H[dW]AW[dF]K-NH2) [GHRP-6, known GH releasing hexapeptide (GH secretagogue), bought from BACHEM]",Mean weigh ± DS,tilapia [1]; [7],4.56 ± 1.07 g
same,Mean weigh ± DS,tilapia [1]; [8],4.54 ± 1.38 g
same,"Statistically difference, mean weigh",tilapia [1]; comparison I-II (10 vs 100 μg/100 mL),0.01454
same,"Statistically difference, mean weigh",tilapia [1]; [9],1.072*
same,"Statistically difference, mean weigh",tilapia [1]; [10],1.086*
same,E: Invasion extension,protozoo Trichodina sp.; [7],100%
same,I: Invasion intensity,protozoo Trichodina sp.; [7],7.73
same,E: Invasion extension,protozoo Trichodina sp.; [8],84.6%
same,I: Invasion intensity,protozoo Trichodina sp.; [8],2.80
same,"Statistically difference, Trichodina sp. invasion",protozoo Trichodina sp.; comparison I-II,(4.42)
same,"Statistically difference, Trichodina sp. invasion",protozoo Trichodina sp.; [9],(5.84)*
same,"Statistically difference, Trichodina sp. invasion",protozoo Trichodina sp.; [11],(1.42)
same,level of hepatic IGF mRNA,tilapia IGF mRNA; 30 min after intraperitoneal injection,increased significantly
same,level of hepatic IGF mRNA,tilapia IGF mRNA; six hours after intraperitoneal injection,backing to the normal value
same,growth (increase in growth rate) vs control,juvenile tilapia [2],significantly stimulated growth
same,Mean humidity ± SD in muscle,tilapia [3]; [7],82.96 ± 3.63%
same,Mean humidity ± SD in muscle,tilapia [3]; [8],83.5 ± 3.31%
same,"Statistically difference, humidity in muscle",tilapia [3]; comparison I-II,(0.791)
same,"Statistically difference, protein concentration","tilapia [3]; comparison I-II, significant",(1.160)*
same,"Statistically difference, humidity in muscle",tilapia [3]; [9],(2.666)*
same,"Statistically difference, protein concentration",tilapia [3]; [9],(1.38)*
same,"Statistically difference, humidity in muscle",tilapia [3]; [11],(3.458)
same,"Statistically difference, protein concentration",tilapia [3]; [10],(2.64)*
same,E: Invasion extension,Helmintos monogeneos; [7],34.7%
same,I: Invasion intensity,Helmintos monogeneos; [7],0.39
same,E: Invasion extension,Helmintos monogeneos; [8],50%
same,I: Invasion intensity,Helmintos monogeneos; [8],0.66
same,"Statistically difference, Helmintos monogeneos invasion",Helmintos monogeneos; comparison I-II,(0.304)
same,"Statistically difference, Helmintos monogeneos invasion",Helmintos monogeneos; comparison II-III (100 μg/100 mL vs saline),(0.521)
same,"Statistically difference, Helmintos monogeneos invasion",Helmintos monogeneos; [10],(0.826)*
same,serum GH levels,serum GH,increased
same,number of bone rostral,[4]; [12],increase
same,number of gill ramifications,[4]; [12],increase
same,increase of mean size,[4]; [13],26%
same,increase of mean weigh,[4]; [13],153%
same,relation Protein/DNA in muscle,[4]; all treated animals vs control,increased
same,relation RNA/DNA in muscle,[4]; all treated animals vs control,increased
same,water content in the muscle,[4]; all treated animals vs control,lower water content in the muscle
same,"body weight gain, encapsulated vs non encapsulated orally intubated treatment","juvenile tilapia [5]; comparison between both oral treatments, P<0.05",higher body weight gain
same,body weight to the end of the treatment vs control,juvenile tilapia [5]; orally intubated encapsulated peptide,statistically differences in the body weight
same,increase of size,[6],37%
same,increase of survival rate of the larvae,[6],20%
same,increase of weigh,[6],115%
same,uniformity of the animals,[6],higher
same,variation coefficient in weigh and size,[6],lower
